EP0325762B1, “Macrocyclic chelating agents and chelates thereof” (BRACCO S.p.A., priority 1987, dated 1989)

Key:
mouse = assay: Determination of LD50 in the mouse by intravenous administration; format: in vivo; conditions: male and female mice, Strain: Crl:CDl(ICR)BR, range in parentheses
Text: Determination of LD₅₀ in the mouse by intravenous administration of the compounds of the present invention. In table II are reported, as non-limiting examples, the LD₅₀ values for compounds A and B of the present invention, in comparison with GdCl₃ and with Gd/DTPA neutralized with N-methylglucamine.

[1] = Determination of relaxivity (longitudinal R1 by Inversion Recovery, transverse R2 by Carr-Purcell-Meiboom-Gill sequence, MINISPEC PC 120 BRUKER); format: physicochemical; conditions: 20 MHz (proton), 39°C, pH 7.3, 0 to 5 mM, water; for R₁: longitudinal relaxivity; for R₂: transverse relaxivity
Procedure: Determination of the relaxivity of the compounds of the present invention.
Longitudinal relaxivity (R₁) measurements were calculated using the "Inversion Recovery" sequence with an 8 point minimum and a 3 parameter fit, according to the program provided for the MINISPEC […] BRUKER instrument, by which measurements were taken.
Transverse relaxivity (R₂) measurements were calculated using the sequence of Carr, Purcell, Meiboom and Gill, according to the program provided for the MINISPEC 120 BRUKER instrument, by means of which measurements were taken, adjusting the apparatus in such a way as to observe the decay of the signal to about 1/3 of the starting value, with a score number higher or equal to 10 and a 2 parameter fit.
In table I, R₁ and R ₂ values calculated for compounds A and B in comparison with Gd/DTPA neutralized with N-methylglucamine, are reported as non-limiting examples.

Row | Compound | LD₅₀ in the mouse* in mmol/kg - intravenous (mouse) | R₁ ([1]; solvent 0.154 M NaCl (0.9%)) [mM/s] | R₂ ([1]; solvent 0.154 M NaCl (0.9%)) [mM/s] | R₁ ([1]; solvent 0.154 M (0.9%)) [mM/s] | R₂ ([1]; solvent 0.154 M (0.9%)) [mM/s]
1 | C[NH2+]C[C@H](O)[C@@H](O)[C@H](O)[C@H](O)CO.O=C([O-])CN1CCN(CC(=O)[O-])CCN(C(COCc2ccccc2)C(=O)[O-])CCN(CC(=O)[O-])CC1.[Gd+3] (stereo not shown) [A, Gd^(3+)/2-[1,4,7,10-tetraaza-4,7,10-tri(carboxymethyl)-cyclododecane-1-yl]-3-benzyloxypropionic acid, neutralized with N-methylglucamine] | 8.8 (7.79 - 9.94) mmol/kg | 4.15 ± 0.01 | 5.67 ± 0.02 |  | 
2 | C[NH2+]C[C@H](O)[C@@H](O)[C@H](O)[C@H](O)CO.O=C([O-])CN1CCN(CC(=O)[O-])CCN(C(CO)C(=O)[O-])CCN(CC(=O)[O-])CC1.[Gd+3] (stereo not shown) [B, Gd^(3+)/2-[1,4,7,10-tetraaza-4,7,10-tri(carboxymethyl)-cyclododecane-1-yl]-3-hydroxypropionic acid, neutralized with N-methylglucamine] | 13.1 (12.2 - 14.1) mmol/kg | 3.72 ± 0.01 | 5.06 ± 0.01 |  | 
3 | CNC[C@H](O)[C@@H](O)[C@H](O)[C@H](O)CO.CNC[C@H](O)[C@@H](O)[C@H](O)[C@H](O)CO.O=C([O-])CN(CCN(CC(=O)[O-])CC(=O)O)CCN(CC(=O)[O-])CC(=O)O.[Gd+3] [Gd/DTPA, reference compound] | 4.8 (4.47 - 5.16) mmol/kg |  |  | 4.08 ± 0.01 | 5.15 ± 0.02
4 | [Cl][Gd]([Cl])[Cl] [GdCl₃, reference compound] | 0.28 (0.24 - 0.32) mmol/kg |  |  |  | 
